Experimental findings from US20190314197A1, “Topical Ocular Delivery Methods and Devices for Use in the Same” (Kedalion Therapeutics, Inc., priority 2018, published 2019) are described below.

Format in all cases: in vivo, human
A short description of assay [1]: Trial 2: intraocular pressure reduction (Goldmann applanation tonometry) in primary open angle glaucoma patients. The note with it: for average IOP decrease measured per patient: approximately 8 hours after dosing. The protocol:
Trial 2 compared the efficacy (dose volume equivalence) of 0.005% w/v latanoprost for intraocular pressure reduction when delivered via AcuStream™ (pre-trial calibration volume=9.2 μl) versus the standard eye dropper for topical drug delivery (approximate volume=30 μl).
Patients included in Trial 2 have previously been diagnosed with primary open angle glaucoma on the basis of intraocular pressure and visual field testing, fundus examination or optical coherence tomography (OCT) data and are currently on prostaglandin analog medical therapy. Patients with corneal abnormalities that would interfere with accurate IOP measurements with applanation tonometry, use of an oral or topical ophthalmic steroids within the past 14 days from screening date, any active ocular surface or anterior segment disease, or progressive field loss during the past year were excluded from the study. Thirteen men and five women participated in the trial.
Recruited patients were taken off medical therapy for a period of 3-4 weeks prior to the study to allow drug “wash out”, thereby elevating their IOPs to pre-treatment levels which was confirmed by examination of the patients' chart history. Patients were randomly assigned as “test” (AcuStream™), or “control” (standard eye dropper). The mean age of the control group and test group were 61.0 years and 65.2 years, respectively.
The patients assigned to either the “test” or “control” group by means of a random numbers table in order to mitigate any potential cross-over effects that could confound data interpretation. An odd number dictated that the patient was in the test group, while even-numbered patients were in the control group.
After performing slit lamp examinations on each patient to verify eligibility and obtaining informed consent, intraocular pressure (IOP) was measured by a sole experienced examiner who was blind to the randomized conditions. A pre-calibrated Goldmann applanation tonometer coupled to a Haag-Streit 900 EQ slit lamp was used to conduct baseline IOP measurements. Once baseline IOP data were verified to be equivalent to pre-medical therapy levels (based on patient's treatment history), the patient then continued to the dosing stage of the study.
Latanoprost solution was administered by a sole ophthalmologist to both eyes of each patient, based on the pre-determined randomized condition.

A short description of assay [2]: Pupil diameter after self-administered pilocarpine micro-dose (presbyopia). As to conditions: non-dosed fellow eye. The protocol:
(§1) A 10 μl micro-dose of a 1% pilocarpine solution was self-administered using an electromagnetic actuated fluid delivery device, e.g., as described above, by three subjects to their own eye. The age range of the subjects was 52 years to 68 years, and all subjects were male. The pilocarpine micro-dose was self-administered by the subjects.
(§2) Baseline, pre-dose values of pupil diameter and near visual acuity in both eyes prior to dosing was measured for all subjects, and then following the baseline measurements, the subjects were dosed in only one eye (the eye with the poorer visual acuity) with the micro-dose pilocarpine solution. Approximately 45 to 60 minutes after dosing, pupil diameter and near visual acuity were again tested. Near visual acuity was measured using a Snellen card at a distance of 40 cm. A tabulation of results is given below in Table A.

The nature of assay [3]: Near visual acuity (Snellen card at 40 cm) after pilocarpine micro-dose (presbyopia). The note with it: dosed eye. The protocol:
as §1, §2

For `CC(C)OC(=O)CCC/C=C\C[C@@H]1[C@@H](CC[C@@H](O)CCc2ccccc2)[C@H](O)C[C@@H]1O` [latanoprost], the entries for the “average IOP decrease measured per patient” value in assay [1] (AcuStream (test group)) and in assay [1] (standard eye dropper (control group)) were 5.0 mm Hg and 4.3 mm Hg, respectively. For the same molecule, the “difference in IOP reduction between AcuStream and standard dropper groups” value in assay [1] (Wilcoxon Ranked Sum test, p=0.3447) is recorded as “no statistically significant differences”. For the same molecule, in assay [1] (control group (standard dropper), OD, baseline IOP 30 mm Hg), the “post-instillation IOP, single patient outlier” value is 17 mm Hg. Besides, the “equivalence of 9.2 μl AcuStream dose volume to 30 μl standard eye drops, intraocular pressure reduction” value in assay [1] (human, in vivo) is “pharmacodynamic equivalence”.

For the molecule `CC[C@@H]1C(=O)OC[C@@H]1Cc1cncn1C` [pilocarpine], the “miotic effect in non-dosed eye” value in assay [2] was “no miotic effect”. For the same molecule, in assay [3] (all subjects), the “mean improvement in near visual acuity” value was 2 lines. In addition, in assay [3] (mean of 3 subjects), the “# of lines change in visual acuity” value is 2 lines.
